Experimental data published in PMC6222614, “Disubstituted 4-Chloro-3-nitrophenylthiourea Derivatives: Antimicrobial and Cytotoxic Studies” (Molecules : A Journal of Synthetic Chemistry and Natural …, 2018).
Converted amounts (≈) assume the structure as drawn.

Legend:
B. subtilis ATCC 6633 = assay: MIC, twofold serial microdilution; format: cell-based; conditions: Bacillus subtilis, ATCC6633; standard strain, 18 h, 35 °C
Method: (§1) The antimicrobial activity of the compounds was tested on Gram-positive bacteria (Staphylococcus aureus NCTC 4163, Staphylococcus aureus ATCC 25923, Staphylococcus aureus ATCC 6538, Staphylococcus aureus ATCC 29213, Staphylococcus epidermidis ATCC 12228, Staphylococcus epidermidis ATCC 35984, Enterococcus faecalis ATCC 29212, Bacillus subtilis ATCC 6633, Bacillus cereus ATCC 11778, Micrococcus luteus ATCC 9341, Micrococcus luteus ATCC 10240); Gram-negative rods (Escherichia coli ATCC 10538, Escherichia coli ATCC 25922, Escherichia coli NCTC 8196, Proteus vulgaris NCTC 4635, Pseudomonas aeruginosa ATCC 15442, Pseudomonas aeruginosa NCTC 6749, Pseudomonas aeruginosa ATCC 27863, Bordetella bronchiseptica ATCC 4617) and yeasts (Candida albicans ATCC 10231, Candida albicans ATCC 90028, Candida parapsilosis ATCC 22019). Other microorganisms used were obtained from the collection of the Department of Pharmaceutical Microbiology, Medical University of Warsaw, Poland.
(§2) Antibacterial activity was examined by the disc-diffusion method under standard conditions using Mueller-Hinton II agar medium (Becton Dickinson) according to CLSI (previously NCCLS) guidelines. Antifungal activities were assessed using Mueller-Hinton agar + 2% glucose and 0.5 µg/mL Methylene Blue Dye Medium. Sterile filter paper discs (9 mm diameter, Whatman No 3 chromatography paper) were dripped with tested compound solutions (in DMSO) to load 400 μg of a given compound per disc. Dry discs were placed on the surface of appropriate agar medium. The results (diameter of the growth inhibition zone) were read after 18 h of incubation at 35 °C. Minimal Inhibitory Concentration (MIC) was tested by the twofold serial microdilution method (in 96-well microtiter plates) using Mueller-Hinton Broth medium (Beckton Dickinson) for bacteria or RPMI-1640 medium for Candida species according to CLSI guidelines. The stock solution of tested agent was prepared in DMSO and diluted in sterile water. Concentrations of tested agents ranged from 0.125 to 512 µg/mL. The final inoculum of all studied microorganisms was 10^5 CFU/ mL^−1 (colony forming units per mL). Minimal inhibitory concentrations (the lowest concentration of a tested agent that prevents visible growth of a microorganism) were read after 18 h (bacteria) or 24 h (yeasts) of incubation at 35 °C.

S. aureus ATCC 6538 = assay: MIC, twofold serial microdilution; format: cell-based; conditions: Staphylococcus aureus, ATCC6538; standard strain, 18 h, 35 °C
Method: as §1, §2

B. cereus ATCC 11778 = assay: MIC, twofold serial microdilution; format: cell-based; conditions: Bacillus cereus, ATCC11778; standard strain, 18 h, 35 °C
Method: as §1, §2

M. luteus ATCC 9341 = assay: MIC, twofold serial microdilution; format: cell-based; conditions: Micrococcus luteus, ATCC9341; standard strain, 18 h, 35 °C
Method: as §1, §2

M. luteus ATCC 10240 = assay: MIC, twofold serial microdilution; format: cell-based; conditions: Micrococcus luteus, ATCC10240; standard strain, 18 h, 35 °C
Method: as §1, §2

S. aureus ATCC 25923 = assay: MIC, twofold serial microdilution; format: cell-based; conditions: Staphylococcus aureus, ATCC25923; standard strain, 18 h, 35 °C
Method: as §1, §2

S. aureus ATCC 29213 = assay: MIC, twofold serial microdilution; format: cell-based; conditions: Staphylococcus aureus, ATCC29213; standard strain, 18 h, 35 °C
Method: as §1, §2

[1] = test system: S. epidermidis ATCC 12228; assay: MIC, twofold serial microdilution; format: cell-based; conditions: Staphylococcus epidermidis, ATCC12228; standard strain, 18 h, 35 °C
Method: as §1, §2

[2] = test system: S. epidermidis ATCC 35984; assay: MIC, twofold serial microdilution; format: cell-based; conditions: Staphylococcus epidermidis, ATCC35984; standard strain, 18 h, 35 °C
Method: as §1, §2

S. aureus NCTC 4163 = assay: MIC, twofold serial microdilution; format: cell-based; conditions: Staphylococcus aureus, NCTC4163; standard strain, 18 h, 35 °C
Method: as §1, §2

HIV-1 IIIB = assay: Anti-HIV-1 activity: protection of MT-4 cells from virus-induced cytopathogenicity (MTT); format: cell-based, Human Immunodeficiency Virus type-1; conditions: Human immunodeficiency virus 1, IIIB, MT4, 96 h; 50% protection of MT-4 cells from HIV-1 induced cytopathogenicity, MTT, 4-day incubation; read-out: HIV-1IIIB EC50
From the text: (§3) Cell line supporting the multiplication of Human Immunodeficiency Virus type-1 (HIV-1) was the CD4+ human T-cells, derived from human hematological tumors, containing an integrated HTLV-1 genome (MT-4). Cells were purchased from American Type Culture Collection (ATCC). Human Immunodeficiency Virus type-1 (HIV-1) IIIB laboratory strain was obtained from the supernatant of the persistently infected H9/IIIB cells (NIH 1983).
The activity of compounds against HIV-1 was based on inhibition of virus-induced cytopathogenicity in MT-4 cell acutely infected with a multiplicity of infection (m.o.i.) of 0.01. Briefly, 50 μL of RPMI containing 1 × 10^4 MT-4 cells were added to each well of flat-bottom microtiter trays, containing 50 μL of RPMI without or with serial dilutions of test compounds. Then, 20 μL of a HIV-1 suspension containing 100 CCID50 were added. After a 4-day incubation at 37 °C, cell viability was determined by the MTT method.

[3] = Cytotoxicity against mock-infected MT-4 cells (MTT); format: cell-based, human; conditions: human, concentration reducing viability of mock-infected MT-4 cells by 50%
Method: as §3
Exponentially growing MT-4 cells were seeded at an initial density of 1 × 10^5 cells/mL in 96-well plates in RPMI-1640 medium, supplemented with 10% fetal bovine serum (FBS), 100 units/mL penicillin G and 100 μg/mL streptomycin. Cell cultures were then incubated at 37 °C in a humidified, 5% CO2 atmosphere, in the absence or presence of serial dilutions of tested compounds. Cell viability was determined after 96 h at 37 °C by the 3-(4,5-dimethylthiazol-2-yl)-2,5-diphenyl-tetrazolium bromide (MTT) method.

standard strains = assay: Antimicrobial activity against set of bacterial and fungal strains; format: cell-based; conditions: for MIC: range over standard strains
Method: as §1
as §2, with “The stock solution of tested agent was prepared in DMSO and diluted in sterile water. Concentrations of tested agents ranged from 0.125 to 512 µg/mL. The final inoculum of all studied microorganisms was 10^5 CFU/ mL^−1 (colony forming units per mL).” left out

[4] = test system: S. epidermidis MRSE 409/11; assay: MIC, hospital methicillin-resistant strain; format: cell-based; conditions: Staphylococcus epidermidis
Method: as §1, §2

[5] = test system: S. epidermidis MRSE 412/11; assay: MIC, hospital methicillin-resistant strain; format: cell-based; conditions: Staphylococcus epidermidis
Method: as §1, §2

[6] = test system: S. epidermidis MRSE 405/11; assay: MIC, hospital methicillin-resistant strain; format: cell-based; conditions: Staphylococcus epidermidis
Method: as §1, §2

[7] = test system: S. epidermidis MRSE 411/11; assay: MIC, hospital methicillin-resistant strain; format: cell-based; conditions: Staphylococcus epidermidis
Method: as §1, §2

[8] = test system: S. epidermidis MRSE 403/11; assay: MIC, hospital methicillin-resistant strain; format: cell-based; conditions: Staphylococcus epidermidis
Method: as §1, §2

[9] = test system: S. epidermidis MRSE 407/11; assay: MIC, hospital methicillin-resistant strain; format: cell-based; conditions: Staphylococcus epidermidis
Method: as §1, §2

[10] = test system: S. epidermidis MRSE 404/11; assay: MIC, hospital methicillin-resistant strain; format: cell-based; conditions: Staphylococcus epidermidis
Method: as §1, §2

[11] = test system: S. epidermidis MRSE 413/11; assay: MIC, hospital methicillin-resistant strain; format: cell-based; conditions: Staphylococcus epidermidis
Method: as §1, §2

[12] = test system: S. epidermidis MRSE 422/11; assay: MIC, hospital methicillin-resistant strain; format: cell-based; conditions: Staphylococcus epidermidis
Method: as §1, §2

[13] = test system: S. epidermidis MRSE 406/11; assay: MIC, hospital methicillin-resistant strain; format: cell-based; conditions: Staphylococcus epidermidis
Method: as §1, §2

staphylococci = assay: MIC against staphylococci; format: cell-based; conditions: moderate activity
Method: as §1, §2

E. faecalis ATCC 29212 = assay: MIC, twofold serial microdilution; format: cell-based; conditions: Enterococcus faecalis, ATCC29212; standard strain, 18 h, 35 °C
Method: as §1, §2

| MIC (B. subtilis ATCC 6633) [µg/mL] | MIC (S. aureus ATCC 6538) [µg/mL] | MIC (B. cereus ATCC 11778) [µg/mL] | MIC (M. luteus ATCC 9341) [µg/mL] | MIC (M. luteus ATCC 10240) [µg/mL] | MIC (S. aureus ATCC 25923) [µg/mL] | MIC (S. aureus ATCC 29213) [µg/mL] | MIC [1] [µg/mL] | MIC [2] [µg/mL] | MIC (S. aureus NCTC 4163) [µg/mL] | EC50 (HIV-1 IIIB) [µM] | melting point [°C] | MIC [4] [µg/mL] | MIC [5] [µg/mL] | MIC [6] [µg/mL] | MIC [7] [µg/mL] | MIC [8] [µg/mL] | MIC [9] [µg/mL] | MIC [10] [µg/mL] | Structure (SMILES) | CC50 at 96 h [3] [µM] | also measured |
| --- | --- | --- | --- | --- | --- | --- | --- | --- | --- | --- | --- | --- | --- | --- | --- | --- | --- | --- | --- | --- | --- |
| 4 (≈ 12.4 µM) | 4 (≈ 12.4 µM) | 4 (≈ 12.4 µM) | 4 (≈ 12.4 µM) | 4 (≈ 12.4 µM) | 2 (≈ 6.22 µM) | 2 (≈ 6.22 µM) | 4 (≈ 12.4 µM) | 4 (≈ 12.4 µM) | 2 (≈ 6.22 µM) | > 14.6 | 156 to 158 | 16 (≈ 49.7 µM) | 32 (≈ 99.4 µM) | 16 (≈ 49.7 µM) | 16 (≈ 49.7 µM) | 16 (≈ 49.7 µM) | 16 (≈ 49.7 µM) | 16 (≈ 49.7 µM) | Cc1ccc(NC(=S)Nc2ccc(Cl)c([N+](=O)[O-])c2)cc1 [Compound 20, 1-(4-chloro-3-nitrophenyl)-3-(4-methylphenyl)thiourea] | 14.6 | MIC (standard strains): 2 to 4 µg/mL (≈ 6.22 to 12.4 µM); MIC [11]: 16 µg/mL (≈ 49.7 µM); MIC [12]: 32 µg/mL (≈ 99.4 µM); MIC [13]: 16 µg/mL (≈ 49.7 µM) |
|  |  |  |  |  |  |  |  |  |  | > 35 | 149 to 150.5 |  |  |  |  |  |  |  | COc1ccc(NC(=S)Nc2ccc(Cl)c([N+](=O)[O-])c2)cc1 [Compound 21, 1-(4-chloro-3-nitrophenyl)-3-(4-methoxyphenyl)thiourea] | 35 | activity against tested microorganisms (standard strains): devoid of activity |
| 4 (≈ 10.6 µM) | 2 (≈ 5.29 µM) | 4 (≈ 10.6 µM) | 4 (≈ 10.6 µM) | 2 (≈ 5.29 µM) | 2 (≈ 5.29 µM) | 2 (≈ 5.29 µM) | 4 (≈ 10.6 µM) | 4 (≈ 10.6 µM) | 4 (≈ 10.6 µM) | > 18.7 | 67 to 69 | 4 (≈ 10.6 µM) | 8 (≈ 21.2 µM) | 4 (≈ 10.6 µM) | 4 (≈ 10.6 µM) | 4 (≈ 10.6 µM) | 4 (≈ 10.6 µM) | 8 (≈ 21.2 µM) | CCCCc1ccc(NC(=S)Nc2ccc(Cl)c([N+](=O)[O-])c2)c(C)c1 [Compound 22, 1-(4-butyl-2-methylphenyl)-3-(4-chloro-3-nitrophenyl)thiourea] | 18.7 | MIC (standard strains): 2 to 4 µg/mL (≈ 5.29 to 10.6 µM); MIC [11]: 8 µg/mL (≈ 21.2 µM); MIC [12]: 8 µg/mL (≈ 21.2 µM); MIC [13]: 8 µg/mL (≈ 21.2 µM) |
| 16 (≈ 51.3 µM) | 16 (≈ 51.3 µM) | 16 (≈ 51.3 µM) | 16 (≈ 51.3 µM) | 16 (≈ 51.3 µM) | 8 (≈ 25.7 µM) | 16 (≈ 51.3 µM) | 32 (≈ 103 µM) | 32 (≈ 103 µM) | 16 (≈ 51.3 µM) | > 25.6 | 144 to 146 | 32 (≈ 103 µM) | 32 (≈ 103 µM) | 32 (≈ 103 µM) | 32 (≈ 103 µM) | 32 (≈ 103 µM) | 32 (≈ 103 µM) | 32 (≈ 103 µM) | O=[N+]([O-])c1cc(NC(=S)NCc2ccco2)ccc1Cl [Compound 30, 1-(4-chloro-3-nitrophenyl)-3-(furan-2-ylmethyl)thiourea] | 25.6 | MIC range towards staphylococci (staphylococci): 8 to 16 µg/mL; MIC (E. faecalis ATCC 29212): 32 µg/mL (≈ 103 µM); MIC [11]: 32 µg/mL (≈ 103 µM); MIC [12]: 32 µg/mL (≈ 103 µM); MIC [13]: 64 µg/mL (≈ 205 µM) |
